Experimental data as given in patent publication US11377469B2, “CD73 inhibitors” (ORIC Pharmaceuticals, Inc., priority 2017, dated 2022).

Target: CD73 (Homo sapiens (Human), UniProt P21589)
Test: Biochemical Assay (CD73 inhibition, AMP hydrolysis, Malachite Green readout)
Conditions: CD73 0.3208 nM, AMP 15 μM, Tris-HCl pH 7.4, Malachite Green absorbance
Procedure: Example A1: Biochemical Assay
Assay Reaction Conditions
• Assay Volume: 70 μl • Reaction Volume: 50 μl • CD73: 0.3208 nM • AMP: 15 μM • Assay Buffer: 2 5 mM Tris-HCL, pH 7.4, 0.01% Brij-35, 0.01% BSA, 5 mM MgCl2 Assay Procedure:
Made dose titration of testing compounds in assay buffer, 10 points ½ log titrations in duplicates starting at 100 μM.
Added 25 μl of CD73 to each well for a final concentration of 320 pM.
Incubated at RT for 15 min.
Added 25 μl of AMP to each well for a final concentration of 15 μM.
Incubated at RT for 10 min.
Added 10 μl of Malachite Green Reagent A, incubate at RT for 10 min.
Added 10 μl of Malachite Green Reagent B, incubate at RT for 45 min. […]
The ability of the compounds disclosed herein to inhibit CD73 activity was quantified and the respective IC50 values were determined. Table 1 provides the biochemical IC50 values of compounds disclosed herein.

Chain of CD73 (P21589 27-574): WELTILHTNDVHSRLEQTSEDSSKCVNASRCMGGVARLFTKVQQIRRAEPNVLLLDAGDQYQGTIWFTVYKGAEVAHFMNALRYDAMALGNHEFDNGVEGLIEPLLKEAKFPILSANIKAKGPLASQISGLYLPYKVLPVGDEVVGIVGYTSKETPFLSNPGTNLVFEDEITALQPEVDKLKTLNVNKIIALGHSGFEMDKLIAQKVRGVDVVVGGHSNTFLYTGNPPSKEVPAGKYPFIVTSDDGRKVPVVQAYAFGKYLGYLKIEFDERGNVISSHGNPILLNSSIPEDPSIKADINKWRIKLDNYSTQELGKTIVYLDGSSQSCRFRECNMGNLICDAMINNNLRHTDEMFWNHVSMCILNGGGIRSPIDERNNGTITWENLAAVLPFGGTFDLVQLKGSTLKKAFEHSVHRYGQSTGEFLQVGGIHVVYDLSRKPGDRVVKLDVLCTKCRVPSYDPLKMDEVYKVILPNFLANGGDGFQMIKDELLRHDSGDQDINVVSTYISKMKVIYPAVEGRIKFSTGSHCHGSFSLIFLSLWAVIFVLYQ

Work on `C[C@H](Nc1nc(Cl)nc2c1cnn2[C@@H]1O[C@H](CS(=O)(=O)CP(=O)(O)O)[C@@H](O)[C@H]1O)c1ccccc1Cl` [Example 129, (((((2S,3S,4R,5R)-5-(6-chloro-4-(((S)-1-(2-chlorophenyl)ethyl)amino)-1H-pyrazolo[3,4-d]pyrimidin-1-yl)-3,4-dihydroxytetrahydrofuran-2-yl)methyl)sulfonyl)methyl)phosphonic acid] yielded an IC50 of no more than 500 nM.

For `CC(C)CN(C[C@H]1O[C@@H](n2ncc3c(NCc4ccccc4Cl)nc(Cl)nc32)[C@H](O)[C@@H]1O)C(=O)CP(=O)(O)O` [Example 20, (2-((((2R,3S,4R,5R)-5-(6-Chloro-4-((2-chlorobenzyl)amino)-1H-pyrazolo[3,4-d]pyrimidin-1-yl)-3,4-dihydroxytetrahydrofuran-2-yl)methyl)(isobutyl)amino)-2-oxoethyl)phosphonic acid], the IC50 was greater than 1000 nM.

Work on “((((2R,3S,4R,5R)-5-(5-chloro-7-((3- chlorobenzyl)pamino)-3H[1,2,3]triazolo[4,5- d]pyrimidin-3-yl)-3,4- dihydroxytetrahydrofuran-2- yl)methoxy)methyl)phosphonic acid [Example 24]” yielded an IC50 of no more than 500 nM.

`CC1(C)CCC[C@@H]1Nc1nc(Cl)nc2c1cnn2[C@@H]1O[C@H](COCP(=O)(O)O)[C@@H](O)[C@H]1O` [Example 102, ((((2R,3S,4R,5R)-5-(6-chloro-4-(((S)-2,2-dimethylcyclopentyl)amino)-1H-pyrazolo[3,4-d]pyrimidin-1-yl)-3,4-dihydroxytetrahydrofuran-2-yl)methoxy)methyl)phosphonic acid] was tested, and the IC50 was no more than 500 nM.

In the case of `O=P(O)(O)CS(=O)(=O)C[C@H]1O[C@@H](n2cnc3c(NC4CCCC4)nc(Cl)nc32)[C@H](O)[C@@H]1O` [Example 112, (((((2S,3S,4R,5R)-5-(2-chloro-6-(cyclopentylamino)-9H-purin-9-yl)-3,4-dihydroxytetrahydrofuran-2-yl)methyl)sulfonyl)methyl)phosphonic acid], the IC50 is reported as no more than 500 nM.

For `O=P(O)(O)COC[C@H]1O[C@@H](n2ccc3c(NCc4ccccc4Cl)nc(Cl)nc32)[C@H](O)[C@@H]1O` [Example 40, ((((2R,3S,4R,5R)-5-(2-chloro-4-((2-chlorobenzyl)amino)-7H-pyrrolo[2,3-d]pyrimidin-7-yl)-3,4-dihydroxytetrahydrofuran-2-yl)methoxy)methyl)phosphonic acid], the IC50 was no more than 500 nM.

With `CNc1nc(NCc2cccc(Cl)c2)c2cnn([C@@H]3O[C@H](COCP(=O)(O)O)[C@@H](O)[C@H]3O)c2n1` [Example 56, ((((2R,3S,4R,5R)-5-(4-((3-chlorobenzyl)amino)-6-(methylamino)-1H-pyrazolo[3,4-d]pyrimidin-1-yl)-3,4-dihydroxytetrahydrofuran-2-yl)methoxy)methyl)phosphonic acid] the IC50 was greater than 1000 nM.

Work on `O=P(O)(O)COC[C@H]1O[C@@H](n2nnc3c(NCC4CC4)nc(Cl)nc32)[C@H](O)[C@@H]1O` [Example 16, ((((2R,3S,4R,5R)-5-(5-Chloro-7-((cyclopropylmethyl)amino)-3H-[1,2,3]triazolo[4,5-d]pyrimidin-3-yl)-3,4-dihydroxytetrahydrofuran-2-yl)methoxy)methyl)phosphonic acid] yielded an IC50 of no more than 500 nM.

Work on `C[C@H](OCP(=O)(O)O)[C@H]1O[C@@H](n2ncc3c(NCc4ccccc4Cl)nc(Cl)nc32)[C@H](O)[C@@H]1O` [Example 50, (((S)-1-((2S,3S,4R,5R)-5-(6-chloro-4-((2-chlorobenzyl)amino)-1H-pyrazolo[3,4-d]pyrimidin-1-yl)-3,4-dihydroxytetrahydrofuran-2-yl)ethoxy)methyl)phosphonic acid] yielded an IC50 greater than 1000 nM.

`O=P(O)(O)COC[C@H]1O[C@@H](n2ccc3c(NC4CCCC4)nc(Cl)nc32)[C@H](O)[C@@H]1O` [Example 137, ((((2R,3S,4R,5R)-5-(2-chloro-4-(cyclopentylamino)-7H-pyrrolo[2,3-d]pyrimidin-7-yl)-3,4-dihydroxytetrahydrofuran-2-yl)methoxy)methyl)phosphonic acid] gave an IC50 of no more than 500 nM.

Molecule `COc1nc(NCC2CC2)c2cnn([C@@H]3O[C@H](COCP(=O)(O)O)[C@@H](O)[C@H]3O)c2n1` [Example 82, ((((2R,3S,4R,5R)-5-(4-((cyclopropylmethyl)amino)-6-methoxy-1H-pyrazolo[3,4-d]pyrimidin-1-yl)-3,4-dihydroxytetrahydrofuran-2-yl)methoxy)methyl)phosphonic acid] has an IC50 of 500 to 1000 nM.

`CC(C)COc1nc(NCc2cccc(Cl)c2)c2cnn([C@@H]3O[C@H](COCP(=O)(O)O)[C@@H](O)[C@H]3O)c2n1` [Example 54, ((((2R,3S,4R,5R)-5-(4-((3-chlorobenzyl)amino)-6-isobutoxy-1H-pyrazolo[3,4-d]pyrimidin-1-yl)-3,4-dihydroxytetrahydrofuran-2-yl)methoxy)methyl)phosphonic acid] was tested, and the IC50 was greater than 1000 nM.

Molecule `CC1(C)CCC[C@H]1Nc1nc(Cl)nc2c1cnn2[C@@H]1O[C@H](COCP(=O)(O)O)[C@@H](O)[C@H]1O` [Example 103, ((((2R,3S,4R,5R)-5-(6-chloro-4-(((R)-2,2-dimethylcyclopentyl)amino)-1H-pyrazolo[3,4-d]pyrimidin-1-yl)-3,4-dihydroxytetrahydrofuran-2-yl)methoxy)methyl)phosphonic acid] has an IC50 of no more than 500 nM.

Molecule `O=P(O)(O)CS(=O)(=O)C[C@H]1O[C@@H](n2ncc3c(NCc4ccc(Cl)cc4)nc(Cl)nc32)[C@H](O)[C@@H]1O` [Example 127, (((((2S,3S,4R,5R)-5-(6-chloro-4-((4-chlorobenzyl)amino)-1H-pyrazolo[3,4-d]pyrimidin-1-yl)-3,4-dihydroxytetrahydrofuran-2-yl)methyl)sulfonyl)methyl)phosphonic acid] has an IC50 of no more than 500 nM.

Molecule `O=P(O)(O)COC[C@H]1O[C@@H](n2ncc3c(NCc4cccc(F)c4)nc(Cl)nc32)[C@H](O)[C@@H]1O` [Example 29, ((((2R,3S,4R,5R)-5-(6-chloro-4-((3-fluorobenzyl)amino)-1H-pyrazolo[3,4-d]pyrimidin-1-yl)-3,4-dihydroxytetrahydrofuran-2-yl)methoxy)methyl)phosphonic acid] has an IC50 of no more than 500 nM.

Molecule `O=C(CP(=O)(O)O)OC[C@H]1O[C@@H](n2ncc3c(NCc4ccccc4Cl)nc(Cl)nc32)[C@H](O)[C@@H]1O` [Example 1, (2-(((2R,3S,4R,5R)-5-(6-Chloro-4-((2-chlorobenzyl)amino)-1H-pyrazolo[3,4-d]pyrimidin-1-yl)-3,4-dihydroxytetrahydrofuran-2-yl)methoxy)-2-oxoethyl)phosphonic acid] has an IC50 of no more than 500 nM.

`C[C@@H](OCP(=O)(O)O)[C@H]1O[C@@H](n2ncc3c(NCc4ccccc4Cl)nc(Cl)nc32)[C@H](O)[C@@H]1O` [Example 60, (((R)-1-((2S,3S,4R,5R)-5-(6-chloro-4-((2-chlorobenzyl)amino)-1H-pyrazolo[3,4-d]pyrimidin-1-yl)-3,4-dihydroxytetrahydrofuran-2-yl)ethoxy)methyl)phosphonic acid] was tested, and the IC50 was greater than 1000 nM.

`O=P(O)(O)CS(=O)(=O)C[C@H]1O[C@@H](n2nnc3c(N[C@H]4CCc5ccccc54)nc(Cl)nc32)[C@H](O)[C@@H]1O` [Example 130, (((((2S,3S,4R,5R)-5-(5-chloro-7-(((S)-2,3-dihydro-1H-inden-1-yl)amino)-3H-[1,2,3]triazolo[4,5-d]pyrimidin-3-yl)-3,4-dihydroxytetrahydrofuran-2-yl)methyl)sulfonyl)methyl)phosphonic acid] showed an IC50 of no more than 500 nM.

For `O=P(O)(O)COC[C@H]1O[C@@H](n2ncc3c(NCc4cccc(Cl)c4)nc(N4CCCC4)nc32)[C@H](O)[C@@H]1O` [Example 55, ((((2R,3S,4R,5R)-5-(4-((3-chlorobenzyl)amino)-6-(pyrrolidin-1-yl)-1H-pyrazolo[3,4-d]pyrimidin-1-yl)-3,4-dihydroxytetrahydrofuran-2-yl)methoxy)methyl)phosphonic acid], the IC50 was greater than 1000 nM.

In the case of `O=P(O)(O)COC[C@H]1O[C@@H](n2ncc3c(NC[C@@H]4CCOC4)nc(Cl)nc32)[C@H](O)[C@@H]1O` [Example 71, ((((2R,3S,4R,5R)-5-(6-chloro-4-((((S)-tetrahydrofuran-3-yl)methyl)amino)-1H-pyrazolo[3,4-d]pyrimidin-1-yl)-3,4-dihydroxytetrahydrofuran-2-yl)methoxy)methyl)phosphonic acid], the IC50 is reported as no more than 500 nM.

In the case of `O=P(O)(O)COC[C@H]1O[C@@H](n2ncc3c(NC4CC(F)(F)C4)nc(Cl)nc32)[C@H](O)[C@@H]1O` [Example 87, ((((2R,3S,4R,5R)-5-(6-chloro-4-((3,3-difluorocyclobutyl)amino)-1H-pyrazolo[3,4-d]pyrimidin-1-yl)-3,4-dihydroxytetrahydrofuran-2-yl)methoxy)methyl)phosphonic acid], the IC50 is reported as no more than 500 nM.

For `CCC(CC)Nc1nc(Cl)nc2c1cnn2[C@@H]1O[C@H](COCP(=O)(O)O)[C@@H](O)[C@H]1O` [Example 78, ((((2R,3S,4R,5R)-5-(6-chloro-4-(pentan-3-ylamino)-1H-pyrazolo[3,4-d]pyrimidin-1-yl)-3,4-dihydroxytetrahydrofuran-2-yl)methoxy)methyl)phosphonic acid], the IC50 was no more than 500 nM.

`C[C@H](Nc1nc(Cl)nc2c1cnn2[C@@H]1O[C@H](CS(=O)(=O)CP(=O)(O)O)[C@@H](O)[C@H]1O)c1ccc(F)cc1` [Example 116, (((((2S,3S,4R,5R)-5-(6-chloro-4-(((S)-1-(4-fluorophenyl)ethyl)amino)-1H-pyrazolo[3,4-d]pyrimidin-1-yl)-3,4-dihydroxytetrahydrofuran-2-yl)methyl)sulfonyl)methyl)phosphonic acid] gave an IC50 of no more than 500 nM.
